The target of assay [1] is T1, Recombinant STAT3 protein (STAT3(G127-I722)) (Homo sapiens, UniProt P40763).
T1 construct: Recombinant STAT3 protein (STAT3(G127-I722))
The assay is described as follows: STAT3 Fluorescence Polarization (FP) Assay. It is filed as binding. As to conditions: STAT3(G127-I722) 25 nM, probe 5-FAM-GpYLPQTV-NH2 2 nM, 45-minute incubation. How it is done: STAT3 Fluorescence Polarization (FP) Assay
An FP assay was developed to determine IC50 values for test substances. Recombinant STAT3 protein (STAT3(G127-I722)) at 25 nM was combined with a fluorescently labeled, phosphotyrosine peptide probe (5-FAM-GpYLPQTV-NH2) at 2 nM in FP buffer (10 mM HEPES pH 7.4, 50 mM NaCl, 1 mM EDTA, 0.05% Tween 20.2 mM DTT). 50 μL of STAT3-probe mixture was added to serial diluted compounds in black, 96-well plates (Greiner BioOne 655076) to a final concentration of 1% DMSO. Reaction components were mixed, and FP was measured after 45-minute incubation at room temperature using a Tecan Spark multimode plate reader. FP signal (mP) was plotted against the log concentration of the test substances and IC50 values were calculated by nonlinear regression analysis using GraphPad Prism software. For STAT3 FP assay, A=≤100 nM; B=>100-1000 nM; C=>1-10 μM; and D=>10 μM.

The target in assay [2] is T2, Recombinant STAT6 protein (STAT6(W123-T658)) (Homo sapiens, UniProt P42226).
T2 construct: Recombinant STAT6 protein (STAT6(W123-T658))
T2 sequence (P42226 123-658): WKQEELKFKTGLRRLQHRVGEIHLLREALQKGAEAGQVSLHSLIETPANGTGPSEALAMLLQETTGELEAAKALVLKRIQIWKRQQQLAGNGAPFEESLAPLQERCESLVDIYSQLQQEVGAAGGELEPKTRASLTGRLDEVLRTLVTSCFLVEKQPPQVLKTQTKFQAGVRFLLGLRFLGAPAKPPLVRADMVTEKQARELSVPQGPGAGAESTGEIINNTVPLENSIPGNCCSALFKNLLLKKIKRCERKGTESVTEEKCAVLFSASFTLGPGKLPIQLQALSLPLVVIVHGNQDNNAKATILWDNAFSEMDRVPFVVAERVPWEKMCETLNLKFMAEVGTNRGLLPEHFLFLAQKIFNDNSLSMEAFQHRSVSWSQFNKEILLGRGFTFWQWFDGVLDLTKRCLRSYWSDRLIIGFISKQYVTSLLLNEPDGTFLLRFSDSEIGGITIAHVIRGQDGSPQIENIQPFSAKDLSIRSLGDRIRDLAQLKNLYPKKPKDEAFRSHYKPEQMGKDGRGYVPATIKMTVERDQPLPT
The assay is described as follows: STAT6 Fluorescence Polarization (FP) Assay. As to conditions: STAT6(W123-T658) 250 nM, probe 5-FAM-ApYKPFQDLI-NH2 2 nM, 45-minute incubation. It is filed as binding. Here is the method: STAT6 Fluorescence Polarization (FP) Assay
An FP assay was developed to determine IC50 values for test substances. Recombinant STAT6 protein (STAT6(W123-T658)) at 250 nM was combined with a fluorescently labeled, phosphotyrosine peptide probe (5-FAM-ApYKPFQDLI-NH2) at 2 nM in FP buffer (10 mM HEPES pH 7.4, 50 mM NaCl, 1 mM EDTA, 0.05% Tween 20.2 mM DTT). 50 μL of STAT6-probe mixture was added to serial diluted compounds in black, 96-well plates (Greiner BioOne 655076) to a final concentration of 1% DMSO. Reaction components were mixed, and FP was measured after 45-minute incubation at room temperature using a Tecan Spark multimode plate reader. FP signal (mP) was plotted against the log concentration of the test substances and IC50 values were calculated by nonlinear regression analysis using GraphPad Prism software. For STAT6 FP assay, A=≤300 nM; B=>300-3000 nM; C=>3-30 μM; and D=>30 μM.
A general note: Fluorescence polarisation rises when a labelled molecule tumbles more slowly, as on binding a larger partner.

pIC50: −log10 of the molar value.

7 compounds from patent US20250179103A1, “6-OXODECAHYDROPYRROLO[1,2-A][1,5]DIAZOCINE AND 6-OXODECAHYDRO-4H-PYRROLO[2,1-D][1,5]THIAZOCINE DERIVATIVES AS STAT3 AND STAT6 MODULATORS FOR THE TREATMENT OF CANCER AND INFLAMMATORY CONDITIONS” (Recludix Pharma, Inc., priority 2022, published 2025) can be followed below.

T1 sequence (P40763 127-722): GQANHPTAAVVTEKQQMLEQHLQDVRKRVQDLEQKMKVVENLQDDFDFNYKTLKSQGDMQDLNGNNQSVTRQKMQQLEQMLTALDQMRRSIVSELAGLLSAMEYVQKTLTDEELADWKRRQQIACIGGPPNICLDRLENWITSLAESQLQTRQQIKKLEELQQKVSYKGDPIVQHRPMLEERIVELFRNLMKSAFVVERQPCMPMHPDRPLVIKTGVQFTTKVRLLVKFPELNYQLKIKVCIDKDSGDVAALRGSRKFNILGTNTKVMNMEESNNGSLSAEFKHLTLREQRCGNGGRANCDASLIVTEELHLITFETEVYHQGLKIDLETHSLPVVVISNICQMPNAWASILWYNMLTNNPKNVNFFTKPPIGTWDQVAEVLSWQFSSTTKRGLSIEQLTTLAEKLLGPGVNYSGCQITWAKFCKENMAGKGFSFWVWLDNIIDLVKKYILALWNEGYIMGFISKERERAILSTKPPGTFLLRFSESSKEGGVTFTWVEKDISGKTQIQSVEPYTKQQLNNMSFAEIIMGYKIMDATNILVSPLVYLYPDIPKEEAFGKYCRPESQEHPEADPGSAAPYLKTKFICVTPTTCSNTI

For orientation: pIC50 means the IC50 on a negative log10 scale, so that one unit is a factor of ten. `CC(=O)N1CCC(NC(=O)c2ccc3ccc(C(F)(F)P(=O)(O)O)cc3c2)C(=O)N2C(CCC2C(=O)N2CC(C#N)C(c3ccccc3)C2)C1` (mixture of isomers) [Compound 4, ((7-(((5S,8S,10aR)-2-acetyl-8-((rel-trans)-3-cyano-4-phenylpyrrolidine-1-carbonyl)-6-oxodecahydropyrrolo[1,2-a][1,4]diazocin-5-yl)carbamoyl)naphthalen-2-yl)difluoromethyl)phosphonic Acid]: the negative-log IC50 (pIC50) in assay [1] is 5.00 to 6.00; in assay [2] it was ≥ 6.52.

On to `N#CC1CN(C(=O)C2CCC3CCN(C(=O)OCc4ccccc4)CC(NC(=O)c4cc5cc(C(F)(F)P(=O)(O)O)ccc5s4)C(=O)N32)CC1c1ccccc1` (mixture of isomers) [Compound 9, ((2-(((5S,8S,10aR)-3-((benzyloxy)carbonyl)-8-((rel-trans)-3-cyano-4-phenylpyrrolidine-1-carbonyl)-6-oxodecahydropyrrolo[1,2-a][1,5]diazocin-5-yl)carbamoyl)benzo[b]thiophen-5-yl)difluoromethyl)phosphonic acid], for which the pIC50 in assay [1] was 6.00 to 7.00; in assay [2], ≥ 6.52.

As for `N#CC1CN(C(=O)C2CCC3CCNCC(NC(=O)c4cc5cc(C(F)(F)P(=O)(O)O)ccc5s4)C(=O)N32)CC1c1ccccc1` (mixture of isomers) [Compound 10, ((2-(((5S,8S,10aR)-8-((rel-trans)-3-cyano-4-phenylpyrrolidine-1-carbonyl)-6-oxodecahydropyrrolo[1,2-a][1,5]diazocin-5-yl)carbamoyl)benzo[b]thiophen-5-yl)difluoromethyl)phosphonic Acid], the pIC50 was 5.00 to 6.00 in assay [1] and ≥ 6.52 in assay [2].

With `N#CC1CN(C(=O)C2CCC3CNCCC(NC(=O)c4ccc5ccc(C(F)(F)P(=O)(O)O)cc5c4)C(=O)N32)CC1c1ccccc1` (mixture of isomers) [Compound 211, ((7-(((5S,8S,10aR)-8-((rel-trans)-3-cyano-4-phenylpyrrolidine-1-carbonyl)-6-oxodecahydropyrrolo[1,2-a][1,4]diazocin-5-yl)carbamoyl)naphthalen-2-yl)difluoromethyl)phosphonic acid], the pIC50 is 5.00 to 6.00 in assay [1] and ≥ 6.52 in assay [2].

As for `CC(=O)N1CC[C@H]2CC[C@@H](C(=O)N3C[C@@H](O)[C@H](n4ccnn4)C3)N2C(=O)[C@@H](NC(=O)c2ccc3ccc(C(F)(F)P(=O)(O)O)cc3c2)C1` (relative stereo) [Compound 5, ((7-(((5S,8S,10aR)-3-acetyl-8-((3R,4R)-3-hydroxy-4-(1H-1,2,3-triazol-1-yl)pyrrolidine-1-carbonyl)-6-oxodecahydropyrrolo[1,2-a][1,5]diazocin-5-yl)carbamoyl)naphthalen-2-yl)difluoromethyl)phosphonic Acid], the results for the negative logarithm of the IC50 (pIC50) in assay [1] and in assay [2] were 5.00 to 6.00 and 5.52 to 6.52, respectively.

Take `CC(=O)N1CC[C@H]2CC[C@@H](C(=O)N3C[C@H](c4ccccc4)[C@@H](O)C3)N2C(=O)[C@@H](NC(=O)c2cc3cc(C(F)(F)P(=O)(O)O)ccc3s2)C1` (relative stereo) [Compound 60, ((2-(((5S,8S,10aR)-3-acetyl-8-((rel-trans)-3-hydroxy-4-phenylpyrrolidine-1-carbonyl)-6-oxodecahydropyrrolo[1,2-a][1,5]diazocin-5-yl)carbamoyl)benzo[b]thiophen-5-yl)difluoromethyl)phosphonic acid]: the figures for the pIC50 in assay [1] and in assay [2] were 5.00 to 6.00 and ≥ 6.52, respectively.

As to `CC(=O)N1CC[C@H]2CC[C@@H](C(=O)N3CC(c4cn[nH]c4)[C@@H](C#N)C3)N2C(=O)[C@@H](NC(=O)c2cc3cc(C(F)(F)P(=O)(O)O)ccc3s2)C1` (relative stereo) [Compound 141, ((2-(((5S,8S,10aR)-3-acetyl-8-((rel-trans)-3-cyano-4-(1H-pyrazol-4-yl)pyrrolidine-1-carbonyl)-6-oxodecahydropyrrolo[1,2-a][1,5]diazocin-5-yl)carbamoyl)benzo[b]thiophen-5-yl)difluoromethyl)phosphonic acid], the pIC50 is 5.00 to 6.00 in assay [1] and 5.52 to 6.52 in assay [2].
